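Each compound was tested at five concentrations against cells in 96-well plates for 48 hours. GI50: concentration for 50% inhibition of growth. Definition used: TGI = concentration required for complete inhibition of growth.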
Tests used:
Assay in all cases: NCI-60 cell line screen, 48 h
MALME-3M melanoma = test system: MALME-3M melanoma
PC-3 prostate = test system: PC-3 prostate
M14 melanoma = test system: M14 melanoma
BT-549 breast = test system: BT-549 breast
KM12 colon = test system: KM12 colon
NCI-H226 lung = test system: NCI-H226 lung
RPMI-8226 leukemia = test system: RPMI-8226 leukemia
NCI-H23 lung = test system: NCI-H23 lung
A498 renal = test system: A498 renal
ACHN renal = test system: ACHN renal
MDA-MB-435 = test system: MDA-MB-435
MOLT-4 leukemia = test system: MOLT-4 leukemia
CAKI-1 renal = test system: CAKI-1 renal
SK-OV-3 ovarian = test system: SK-OV-3 ovarian
UACC-257 melanoma = test system: UACC-257 melanoma
T-47D breast = test system: T-47D breast
SK-MEL-2 melanoma = test system: SK-MEL-2 melanoma
OVCAR-4 ovarian = test system: OVCAR-4 ovarian
SNB-19 CNS = test system: SNB-19 CNS
A549 NSCLC = test system: A549 NSCLC
UO-31 renal = test system: UO-31 renal
HT29 colon = test system: HT29 colon
HL-60(TB) leukemia = test system: HL-60(TB) leukemia
HCC-2998 colon = test system: HCC-2998 colon
MDA-MB-231 breast = test system: MDA-MB-231 breast
SF-539 CNS = test system: SF-539 CNS
U251 CNS = test system: U251 CNS
LOX IMVI melanoma = test system: LOX IMVI melanoma
SNB-75 CNS = test system: SNB-75 CNS
OVCAR-3 ovarian = test system: OVCAR-3 ovarian
SF-295 CNS = test system: SF-295 CNS
OVCAR-8 ovarian = test system: OVCAR-8 ovarian
TK-10 renal = test system: TK-10 renal
RXF 393 renal = test system: RXF 393 renal
HOP-92 NSCLC = test system: HOP-92 NSCLC
MCF7 breast = test system: MCF7 breast
HS 578T breast = test system: HS 578T breast
786-0 renal = test system: 786-0 renal
EKVX NSCLC = test system: EKVX NSCLC
UACC-62 melanoma = test system: UACC-62 melanoma
SK-MEL-28 melanoma = test system: SK-MEL-28 melanoma
SK-MEL-5 melanoma = test system: SK-MEL-5 melanoma
HOP-62 NSCLC = test system: HOP-62 NSCLC
K-562 leukemia = test system: K-562 leukemia
HCT-116 colon = test system: HCT-116 colon
SN12C renal = test system: SN12C renal
CCRF-CEM leukemia = test system: CCRF-CEM leukemia
SF-268 CNS = test system: SF-268 CNS
DU-145 prostate = test system: DU-145 prostate
NCI-H522 lung = test system: NCI-H522 lung
NCI/ADR-RES ovarian = test system: NCI/ADR-RES ovarian
OVCAR-5 ovarian = test system: OVCAR-5 ovarian
IGROV1 ovarian = test system: IGROV1 ovarian
COLO 205 colon = test system: COLO 205 colon
HCT-15 colon = test system: HCT-15 colon
NCI-H460 lung = test system: NCI-H460 lung
SW-620 colon = test system: SW-620 colon

Q: Which results are given for COc1cc(/C=C/C(=O)c2cc(OC)c(OC)c(OC)c2)ccc1OCc1ccccc1?
A: GI50 (MALME-3M melanoma): 5.08 µM; TGI (MALME-3M melanoma): > 100 µM; GI50 (PC-3 prostate): 3.16 µM; TGI (PC-3 prostate): > 100 µM; GI50 (M14 melanoma): 4.77 µM; TGI (M14 melanoma): > 100 µM; GI50 (BT-549 breast): 1830 nM; TGI (BT-549 breast): 3.9 µM; GI50 (KM12 colon): 3.6 µM; TGI (KM12 colon): > 100 µM; GI50 (NCI-H226 lung): 4.16 µM; TGI (NCI-H226 lung): > 100 µM; GI50 (RPMI-8226 leukemia): 1900 nM; TGI (RPMI-8226 leukemia): > 100 µM; GI50 (NCI-H23 lung): 2370 nM; TGI (NCI-H23 lung): 7.23 µM; GI50 (A498 renal): 15.8 µM; TGI (A498 renal): 58.9 µM; GI50 (ACHN renal): 2160 nM; TGI (ACHN renal): 5.75 µM; GI50 (MDA-MB-435): 3.2 µM; TGI (MDA-MB-435): > 100 µM; GI50 (MOLT-4 leukemia): 3.01 µM; TGI (MOLT-4 leukemia): 73.4 µM; GI50 (CAKI-1 renal): 4.11 µM; TGI (CAKI-1 renal): > 100 µM; GI50 (SK-OV-3 ovarian): 4.2 µM; TGI (SK-OV-3 ovarian): > 100 µM; GI50 (UACC-257 melanoma): 3.29 µM; TGI (UACC-257 melanoma): 68.9 µM; GI50 (T-47D breast): 2960 nM; TGI (T-47D breast): > 100 µM; GI50 (SK-MEL-2 melanoma): 3.7 µM; TGI (SK-MEL-2 melanoma): 25.3 µM; GI50 (OVCAR-4 ovarian): 2840 nM; TGI (OVCAR-4 ovarian): > 100 µM; GI50 (SNB-19 CNS): 2640 nM; TGI (SNB-19 CNS): 8.69 µM; GI50 (A549 NSCLC): 2770 nM; TGI (A549 NSCLC): > 100 µM; GI50 (UO-31 renal): 2200 nM; TGI (UO-31 renal): > 100 µM; GI50 (HT29 colon): 2660 nM; TGI (HT29 colon): > 100 µM; GI50 (HL-60(TB) leukemia): 2140 nM; TGI (HL-60(TB) leukemia): 7.61 µM; GI50 (HCC-2998 colon): 2800 nM; TGI (HCC-2998 colon): 7.91 µM; GI50 (MDA-MB-231 breast): 2830 nM; TGI (MDA-MB-231 breast): > 100 µM; GI50 (SF-539 CNS): 2040 nM; TGI (SF-539 CNS): 4.28 µM; GI50 (U251 CNS): 2360 nM; TGI (U251 CNS): 7.5 µM; GI50 (LOX IMVI melanoma): 1690 nM; TGI (LOX IMVI melanoma): 4.09 µM; GI50 (SNB-75 CNS): 1700 nM; TGI (SNB-75 CNS): 3.62 µM; GI50 (OVCAR-3 ovarian): 3.75 µM; TGI (OVCAR-3 ovarian): > 100 µM; GI50 (SF-295 CNS): 3.16 µM; TGI (SF-295 CNS): > 100 µM; GI50 (OVCAR-8 ovarian): 2160 nM; TGI (OVCAR-8 ovarian): 5.8 µM; GI50 (TK-10 renal): 4.97 µM; TGI (TK-10 renal): > 100 µM; GI50 (RXF 393 renal): 2180 nM; TGI (RXF 393 renal): 6.07 µM; GI50 (HOP-92 NSCLC): 1880 nM; TGI (HOP-92 NSCLC): 7.57 µM; GI50 (MCF7 breast): 2530 nM; TGI (MCF7 breast): > 100 µM; GI50 (HS 578T breast): 4.06 µM; TGI (HS 578T breast): > 100 µM; GI50 (786-0 renal): 4.71 µM; TGI (786-0 renal): > 100 µM; GI50 (EKVX NSCLC): 4.33 µM; TGI (EKVX NSCLC): 51.6 µM; GI50 (UACC-62 melanoma): 1820 nM; TGI (UACC-62 melanoma): 4.51 µM; GI50 (SK-MEL-28 melanoma): 3.79 µM; TGI (SK-MEL-28 melanoma): 30.6 µM; GI50 (SK-MEL-5 melanoma): 2650 nM; TGI (SK-MEL-5 melanoma): 11.1 µM; GI50 (HOP-62 NSCLC): 3.49 µM; TGI (HOP-62 NSCLC): 43.4 µM; GI50 (K-562 leukemia): 2590 nM; TGI (K-562 leukemia): > 100 µM; GI50 (HCT-116 colon): 2730 nM; TGI (HCT-116 colon): > 100 µM; GI50 (SN12C renal): 1940 nM; TGI (SN12C renal): 6.59 µM; GI50 (CCRF-CEM leukemia): 3000 nM; TGI (CCRF-CEM leukemia): > 100 µM; GI50 (SF-268 CNS): 3.65 µM; TGI (SF-268 CNS): > 100 µM; GI50 (DU-145 prostate): 3.55 µM; TGI (DU-145 prostate): > 100 µM; GI50 (NCI-H522 lung): 1450 nM; TGI (NCI-H522 lung): 3.43 µM; GI50 (NCI/ADR-RES ovarian): 2820 nM; TGI (NCI/ADR-RES ovarian): 9.4 µM; GI50 (OVCAR-5 ovarian): 2670 nM; TGI (OVCAR-5 ovarian): 13.7 µM; GI50 (IGROV1 ovarian): 3.06 µM; TGI (IGROV1 ovarian): > 100 µM; GI50 (COLO 205 colon): 3.34 µM; TGI (COLO 205 colon): 26.2 µM; GI50 (HCT-15 colon): 1750 nM; TGI (HCT-15 colon): 5.28 µM; GI50 (NCI-H460 lung): 2330 nM; TGI (NCI-H460 lung): 6.16 µM; GI50 (SW-620 colon): 3.61 µM; TGI (SW-620 colon): > 100 µM

Reference: PubChem BioAssay (NCI)
